Measurements: article PMC7156458, “Synthetic biology based construction of biological activity-related library of fungal decalin-containing diterpenoid pyrones” (Nature Communications, 2020)

Molecular target: Aβ42 (Homo sapiens, UniProt P05067)
Experiment: Th-T (thioflavin-T) assay of Aβ42 aggregation
Format: biochemical
Conditions: for Th-T fluorescence of Aβ42 (sheet Fig. 7a), mean of three wells: head suffix _50 (concentration 50); for Th-T assay plate reading, mean of three wells (Supplementary Fig. 47): source data, Ab alone and No Ab as controls; for Th-T fluorescence, mean of three wells: Supplementary Fig. 47 source data

Chain of Aβ42 (P05067 672-713): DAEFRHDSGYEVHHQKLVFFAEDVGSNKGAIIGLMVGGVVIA

SMILES: C=C1CCC2C(C)(CCC=C(C)C)C(O)CCC2(C)C1Cc1c(OC)oc(C)c(C(=O)OC)c1=O (stereo not drawn) [Compound 14]
- Th-T fluorescence of Aβ42 (sheet Fig. 7a), mean of three wells (reading M73): 2.8491
- Th-T fluorescence of Aβ42 (sheet Fig. 7a), mean of three wells (reading M74): 2.743
- Th-T fluorescence of Aβ42 (sheet Fig. 7a), mean of three wells (reading M75): 2.678
- Th-T fluorescence of Aβ42 (sheet Fig. 7a), mean of three wells (reading M76): 2.6047
- Th-T fluorescence of Aβ42 (sheet Fig. 7a), mean of three wells (reading M77): 2.524
- Th-T fluorescence of Aβ42 (sheet Fig. 7a), mean of three wells (reading M78): 2.476
- Th-T fluorescence of Aβ42 (sheet Fig. 7a), mean of three wells (reading M79): 2.356
- Th-T fluorescence of Aβ42 (sheet Fig. 7a), mean of three wells (reading M80): 2.329
- Th-T fluorescence of Aβ42 (sheet Fig. 7a), mean of three wells (reading M81): 2.257
- Th-T fluorescence of Aβ42 (sheet Fig. 7a), mean of three wells (reading M82): 2.201
- Th-T fluorescence of Aβ42 (sheet Fig. 7a), mean of three wells (reading M83): 2.154
- Th-T fluorescence of Aβ42 (sheet Fig. 7a), mean of three wells (reading M84): 2.095
- Th-T assay plate reading, mean of three wells (Supplementary Fig. 47) (measurement M1): 0.2816
- Th-T assay plate reading, mean of three wells (Supplementary Fig. 47) (measurement M2): 0.2424
- Th-T assay plate reading, mean of three wells (Supplementary Fig. 47) (measurement M3): 0.24
- Th-T assay plate reading, mean of three wells (Supplementary Fig. 47) (measurement M4): 0.2537
- Th-T assay plate reading, mean of three wells (Supplementary Fig. 47) (measurement M5): 0.2619
- Th-T assay plate reading, mean of three wells (Supplementary Fig. 47) (measurement M6): 0.2823
- Th-T assay plate reading, mean of three wells (Supplementary Fig. 47) (measurement M7): 0.2966
- Th-T assay plate reading, mean of three wells (Supplementary Fig. 47) (measurement M8): 0.3078
- Th-T assay plate reading, mean of three wells (Supplementary Fig. 47) (measurement M9): 0.3225
- Th-T assay plate reading, mean of three wells (Supplementary Fig. 47) (measurement M10): 0.3472
- Th-T assay plate reading, mean of three wells (Supplementary Fig. 47) (measurement M11): 0.3856
- Th-T assay plate reading, mean of three wells (Supplementary Fig. 47) (measurement M12): 0.4563
- Th-T assay plate reading, mean of three wells (Supplementary Fig. 47) (measurement M13): 0.5559
- Th-T assay plate reading, mean of three wells (Supplementary Fig. 47) (measurement M14): 0.6968
- Th-T assay plate reading, mean of three wells (Supplementary Fig. 47) (measurement M15): 0.8869
- Th-T assay plate reading, mean of three wells (Supplementary Fig. 47) (measurement M16): 1.062
- Th-T fluorescence, mean of three wells (Fig. 7a) (reading M107, compound at 10 (head suffix _10)): 2.856
- Th-T fluorescence, mean of three wells (Fig. 7a) (reading M107, compound at 20 (head suffix _20)): 1.717
- Th-T fluorescence, mean of three wells (Fig. 7a) (reading M107, compound at 50 (head suffix _50)): 1.263
- Th-T fluorescence, mean of three wells (Fig. 7a) (reading M108, compound at 10 (head suffix _10)): 2.848
- Th-T fluorescence, mean of three wells (Fig. 7a) (reading M108, compound at 20 (head suffix _20)): 1.693
- Th-T fluorescence, mean of three wells (Fig. 7a) (reading M108, compound at 50 (head suffix _50)): 1.239
- Th-T fluorescence, mean of three wells (Fig. 7a) (reading M109, compound at 10 (head suffix _10)): 2.86
- Th-T fluorescence, mean of three wells (Fig. 7a) (reading M109, compound at 20 (head suffix _20)): 1.668
- Th-T fluorescence, mean of three wells (Fig. 7a) (reading M109, compound at 50 (head suffix _50)): 1.221
- Th-T fluorescence, mean of three wells (Fig. 7a) (reading M110, compound at 10 (head suffix _10)): 2.89
- Th-T fluorescence, mean of three wells (Fig. 7a) (reading M110, compound at 20 (head suffix _20)): 1.691
- Th-T fluorescence, mean of three wells (Fig. 7a) (reading M110, compound at 50 (head suffix _50)): 1.198
- Th-T fluorescence, mean of three wells (Fig. 7a) (reading M111, compound at 10 (head suffix _10)): 2.887
- Th-T fluorescence, mean of three wells (Fig. 7a) (reading M111, compound at 20 (head suffix _20)): 1.674
- Th-T fluorescence, mean of three wells (Fig. 7a) (reading M111, compound at 50 (head suffix _50)): 1.171
- Th-T fluorescence, mean of three wells (Fig. 7a) (reading M112, compound at 10 (head suffix _10)): 2.867
- Th-T fluorescence, mean of three wells (Fig. 7a) (reading M112, compound at 20 (head suffix _20)): 1.668
- Th-T fluorescence, mean of three wells (Fig. 7a) (reading M112, compound at 50 (head suffix _50)): 1.153
- Th-T fluorescence, mean of three wells (Fig. 7a) (reading M113, compound at 10 (head suffix _10)): 2.843
- Th-T fluorescence, mean of three wells (Fig. 7a) (reading M113, compound at 20 (head suffix _20)): 1.686
- Th-T fluorescence, mean of three wells (Fig. 7a) (reading M113, compound at 50 (head suffix _50)): 1.142
- Th-T fluorescence, mean of three wells (Fig. 7a) (reading M114, compound at 10 (head suffix _10)): 2.88
- Th-T fluorescence, mean of three wells (Fig. 7a) (reading M114, compound at 20 (head suffix _20)): 1.678
- Th-T fluorescence, mean of three wells (Fig. 7a) (reading M114, compound at 50 (head suffix _50)): 1.107
- Th-T fluorescence, mean of three wells (Fig. 7a) (reading M115, compound at 10 (head suffix _10)): 2.899
- Th-T fluorescence, mean of three wells (Fig. 7a) (reading M115, compound at 20 (head suffix _20)): 1.649
- Th-T fluorescence, mean of three wells (Fig. 7a) (reading M115, compound at 50 (head suffix _50)): 1.096
- Th-T fluorescence, mean of three wells (Fig. 7a) (reading M116, compound at 10 (head suffix _10)): 2.891
- Th-T fluorescence, mean of three wells (Fig. 7a) (reading M116, compound at 20 (head suffix _20)): 1.656
- Th-T fluorescence, mean of three wells (Fig. 7a) (reading M116, compound at 50 (head suffix _50)): 1.094
- Th-T fluorescence, mean of three wells (Fig. 7a) (reading M117, compound at 10 (head suffix _10)): 2.891
- Th-T fluorescence, mean of three wells (Fig. 7a) (reading M117, compound at 20 (head suffix _20)): 1.6485
- Th-T fluorescence, mean of three wells (Fig. 7a) (reading M117, compound at 50 (head suffix _50)): 1.063
- Th-T fluorescence, mean of three wells (Fig. 7a) (reading M118, compound at 10 (head suffix _10)): 2.882
- Th-T fluorescence, mean of three wells (Fig. 7a) (reading M118, compound at 20 (head suffix _20)): 1.636
- Th-T fluorescence, mean of three wells (Fig. 7a) (reading M118, compound at 50 (head suffix _50)): 1.027
- Th-T fluorescence, mean of three wells (Fig. 7a) (reading M119, compound at 10 (head suffix _10)): 2.895
- Th-T fluorescence, mean of three wells (Fig. 7a) (reading M119, compound at 20 (head suffix _20)): 1.645
- Th-T fluorescence, mean of three wells (Fig. 7a) (reading M119, compound at 50 (head suffix _50)): 1.02
- Th-T fluorescence, mean of three wells (Fig. 7a) (reading M120, compound at 10 (head suffix _10)): 2.912
- Th-T fluorescence, mean of three wells (Fig. 7a) (reading M120, compound at 20 (head suffix _20)): 1.644
- Th-T fluorescence, mean of three wells (Fig. 7a) (reading M120, compound at 50 (head suffix _50)): 1.015
- Th-T fluorescence, mean of three wells (Fig. 7a) (reading M121, compound at 10 (head suffix _10)): 2.89
- Th-T fluorescence, mean of three wells (Fig. 7a) (reading M121, compound at 20 (head suffix _20)): 1.621
- Th-T fluorescence, mean of three wells (Fig. 7a) (reading M121, compound at 50 (head suffix _50)): 1.008
- Th-T fluorescence, mean of three wells (Fig. 7a) (reading M122, compound at 10 (head suffix _10)): 2.911
- Th-T fluorescence, mean of three wells (Fig. 7a) (reading M122, compound at 20 (head suffix _20)): 1.5939
- Th-T fluorescence, mean of three wells (Fig. 7a) (reading M122, compound at 50 (head suffix _50)): 0.9934
- Th-T fluorescence, mean of three wells (Fig. 7a) (reading M123, compound at 10 (head suffix _10)): 2.8989
- Th-T fluorescence, mean of three wells (Fig. 7a) (reading M123, compound at 20 (head suffix _20)): 1.589
- Th-T fluorescence, mean of three wells (Fig. 7a) (reading M123, compound at 50 (head suffix _50)): 0.9605
- Th-T fluorescence, mean of three wells (Fig. 7a) (reading M124, compound at 10 (head suffix _10)): 2.906
- Th-T fluorescence, mean of three wells (Fig. 7a) (reading M124, compound at 20 (head suffix _20)): 1.657
- Th-T fluorescence, mean of three wells (Fig. 7a) (reading M124, compound at 50 (head suffix _50)): 0.9345
- Th-T fluorescence, mean of three wells (Fig. 7a) (reading M125, compound at 10 (head suffix _10)): 2.918
- Th-T fluorescence, mean of three wells (Fig. 7a) (reading M125, compound at 20 (head suffix _20)): 1.601
- Th-T fluorescence, mean of three wells (Fig. 7a) (reading M125, compound at 50 (head suffix _50)): 0.9471
- Th-T fluorescence, mean of three wells (Fig. 7a) (reading M126, compound at 10 (head suffix _10)): 2.913
- Th-T fluorescence, mean of three wells (Fig. 7a) (reading M126, compound at 20 (head suffix _20)): 1.6231
- Th-T fluorescence, mean of three wells (Fig. 7a) (reading M126, compound at 50 (head suffix _50)): 0.9219
- Th-T fluorescence, mean of three wells (Fig. 7a) (reading M127, compound at 10 (head suffix _10)): 2.92
- Th-T fluorescence, mean of three wells (Fig. 7a) (reading M127, compound at 20 (head suffix _20)): 1.639
- Th-T fluorescence, mean of three wells (Fig. 7a) (reading M127, compound at 50 (head suffix _50)): 0.9074
- Th-T fluorescence, mean of three wells (Fig. 7a) (reading M128, compound at 10 (head suffix _10)): 2.916
- Th-T fluorescence, mean of three wells (Fig. 7a) (reading M128, compound at 20 (head suffix _20)): 1.631
- Th-T fluorescence, mean of three wells (Fig. 7a) (reading M128, compound at 50 (head suffix _50)): 0.8816
- Th-T fluorescence, mean of three wells (time-course reading M97): 1.587
- Th-T fluorescence, mean of three wells (time-course reading M98): 1.593
- Th-T fluorescence, mean of three wells (time-course reading M99): 1.591
- Th-T fluorescence, mean of three wells (time-course reading M100): 1.596
- Th-T fluorescence, mean of three wells (time-course reading M101): 1.605
- Th-T fluorescence, mean of three wells (time-course reading M102): 1.603
- Th-T fluorescence, mean of three wells (time-course reading M103): 1.613
- Th-T fluorescence, mean of three wells (time-course reading M104): 1.605
- Th-T fluorescence, mean of three wells (time-course reading M105): 1.614
- Th-T fluorescence, mean of three wells (time-course reading M106): 1.61
- Th-T fluorescence, mean of three wells (time-course reading M107): 1.627
- Th-T fluorescence, mean of three wells (time-course reading M108): 1.622
- Th-T fluorescence, mean of three wells (time-course reading M109): 1.637
- Th-T fluorescence, mean of three wells (time-course reading M110): 1.6366
- Th-T fluorescence, mean of three wells (time-course reading M111): 1.648
- Th-T fluorescence, mean of three wells (time-course reading M112): 1.658
- Th-T fluorescence, mean of three wells (time-course reading M113): 1.641
- Th-T fluorescence, mean of three wells (time-course reading M114): 1.648
- Th-T fluorescence, mean of three wells (time-course reading M115): 1.646
- Th-T fluorescence, mean of three wells (time-course reading M116): 1.651
